{
  "source": "patent US20120070476A1",
  "about": "“Compositions and Methods for Inactivation of Pathogens at Genital Tract Surfaces” (priority 2009, published 2012)",
  "key": {"[1]": {"tested_on": "BV-associated organisms", "assay": "Survival of BV-associated organisms after 2-hour exposure to racemic lactic acid", "type": "cell-based, Eighteen BV-associated organisms", "conditions": "pH 4.5, between 10 and 100 mM (~0.1-1%) lactic acid, 37° C., versus pH 4.5 without lactic acid", "protocol": "(§1) Eighteen BV-associated organisms, and four lactobacillus strains obtained from the American Type Culture Collection, Rockville Md., were grown in appropriate growth medium and incubation conditions, and exposed to a 2-hour further incubation at 37° C. in media at pH 7 without lactic acid, or at pH 4.5 with racemic lactic acid concentrations ranging from zero to 550 mM (5%). The number of organisms surviving exposure to these conditions is plotted in FIG. 4. BV-associated organisms are plotted with solid lines."}, "[2]": {"tested_on": "lactobacilli", "assay": "Survival of lactobacillus strains after 2-hour exposure to lactic acid", "type": "cell-based, four lactobacillus strains", "protocol": "as §1"}, "[3]": {"tested_on": "Herpes simplex virus type 2 (HSV-2)", "assay": "Inactivation of cell-free HSV-2 by acidified exposure media, titred on Elvis cells", "type": "cell-based", "conditions": "0.1% acid, pH 3.8, 30 minutes, 37° C.", "protocol": "The effect of low pH alone, and low pH in the presence of racemic lactic acid, L-lactic acid, and D-lactic acid on the survival of Herpes simplex virus type 2 (HSV-2) was assessed. Cell-free HSV-2 (ATCC VR-734™ strain 9, American Type Culture Collection, Manassas, Va.) was aliquoted, stored at −80° C., and thawed immediately before its use. Elvis™ (Enzyme-linked Virus Inducible System™) cells (Diagnostic Hybrids, Athens Ohio) were supplied growing in flat-bottomed, 96-well microplates. Each plate was kept in a humidified incubator (5% CO2, 37° C.) until the cells were between 75% and 95% confluent. The supplier's original growth medium was replaced with fresh, pre-warmed tissue culture re-feeding medium (Trinity Biotech USA, Jamestown, N.Y.) several hours before the microplate was used in an experiment.\nViral exposure media were prepared by adding 0.1% D,L-lactic acid (Sigma-Aldrich, St. Louis, Mo.), D-lactic acid (Bachem Bioscience Inc., King of Prussia, Pa.), L-lactic acid, (Sigma-Aldrich, St. Louis, Mo.), acetic acid (Sigma-Aldrich) or no acid to 0.9% NaCl in deionized water. The pH of the solutions was measured and adjusted as necessary before, during, and after the experiments using an MI-410 combination pH electrode (Microelectrodes Inc., Bedford, N.H.) to pH 3.8 for all of the organic acid-containing viral exposure media. Two viral exposure media not containing an organic acid were adjusted to pH 3.8 with HCl, or to pH 7.4 with dilute NaOH. Freshly thawed viral stock was diluted 1:10 with viral exposure media and incubated for 30 minutes at 37° C. At the end of the incubation, all media were diluted ten-fold with re-feeding medium to rapidly neutralize the acidity of those media that were acidic. Three-fold serial dilutions were then made with the same growth medium. Each dilution of virus was then inoculated into two replicate wells on a microplate of Elvis™ cells. The microplate was spun at […], 25° C. for 25 minutes and incubated in a humidified incubator (5% CO2, 37° C.) for 16-24 hours. The growth medium was removed from the microplate wells, and the Elvis™ cells were fixed and stained according to the manufacturer's instructions. The microplate wells were examined on an inverted microscope for the presence of blue-stained cells, indicating viral infection."}, "[4]": {"tested_on": "Herpes simplex virus type-1 (HSV-1)", "assay": "Inactivation of HSV-1 (KOS strain) by acidified exposure media", "type": "cell-based", "conditions": "0.1%, pH 3.8, 30-minute exposure"}, "[5]": {"tested_on": "M. mulieris, M. curtisii, Mycoplasma hominus", "assay": "Inactivation of three BV-associated organisms by L-lactic acid", "type": "cell-based, Mobiluncus mulieris, Mobiluncus curtisii", "conditions": "pH 4.5, 2-hour, 37° C.", "protocol": "as §1"}, "[6]": {"tested_on": "HeLa cells", "experimental": "The toxicity of D-lactic acid and of L-lactic acid were assessed on tissue culture monolayers using a well known cell viability assay. HeLa cells (ATCC CCL-2, a cell line derived from a cervical epithelial cancer) were grown in 96-well tissue culture plates to approximately 90% confluence in DMEM medium supplemented with 3% fetal bovine serum. Medium was removed from the wells, and replaced by the same medium now containing D- or L-lactic acid between concentrations of 0% and 1% (w/v). The plates were incubated for 30 minutes at 37° C. and 5% CO2. The wells were washed three times with 0.9% saline, and then 20 microliters of a tetrazolium viability stain (Promega CellTiter 9603 One Solution) was added. After 1 hour, the absorbance of the fluid in the wells was read with a spectrophotometer at a wavelength of 575 nanometers."}},
  "data": [
    {"compound": "CC(O)C(=O)O", "note": "(racemic) [racemic lactic acid, D,L-lactic acid, reference compound]", "values": [
      {"measurement": "Inactivation of BV-associated organisms (in words)", "setting": "[1]", "result": "dramatically increased"},
      {"measurement": "Survival of lactobacilli (in words)", "setting": "[2]; pH 4.5, highest concentration tested (5% or ~550 millimolar), 2-hour, 37° C.", "result": "survived unaltered"}
    ]},
    {"compound": "C[C@@H](O)C(=O)O", "note": "[D-lactic acid, reference compound]", "values": [
      {"measurement": "HSV-2 inactivation beyond low pH without organic acids (in words)", "setting": "[3]", "result": "further reduced HSV-2 viability"}
    ]},
    {"compound": "C[C@H](O)C(=O)O", "note": "[L-lactic acid]", "values": [
      {"measurement": "HSV-2 inactivation beyond low pH without organic acids (in words)", "setting": "[3]", "result": "further reduced HSV-2 viability"},
      {"measurement": "reduction of HSV-2 viability, more than low pH with D-lactic acid", "setting": "[3]", "result": "approximately 5 fold"},
      {"measurement": "reduction of HSV-2 viability, more than low pH without lactic acid", "setting": "[3]", "result": "approximately 11 fold"},
      {"measurement": "HSV-1 inactivation, greater than D-lactic acid at pH 3.8", "setting": "[4]", "result": "approximately 10 fold"},
      {"measurement": "HSV-1 inactivation, more than at pH 3.8 without lactic acid", "setting": "[4]", "result": "~25", "unit": "fold"},
      {"measurement": "HSV-1 inactivation, more than the control at pH 7.4 without lactic acid", "setting": "[4]", "result": "approximately 80 fold"},
      {"measurement": "concentration not harmful to lactobacilli", "setting": "[2]; pH 4.5, inferred from 550 mM racemic lactic acid being 50% L-lactic acid", "result": "up to 280 mM"},
      {"measurement": "Inactivation of all three organisms at pH 4.5 with L-lactic acid versus pH 4.5 without lactic acid (in words)", "setting": "[5]", "result": "substantially greater"},
      {"measurement": "shift of dose-response for cellular cytotoxicity relative to D-lactic acid", "setting": "[6]", "result": "more than 500 fold"}
    ]},
    {"compound": "CC(=O)O", "note": "[acetic acid, reference compound]", "values": [
      {"measurement": "HSV-2 inactivation beyond low pH without organic acids (in words)", "setting": "[3]", "result": "did not increase the degree of inactivation"}
    ]}
  ]
}
